This is an account of results in EP0093643A1 (priority 1982, dated 1983).

The test system of test [1] is récepteurs muscariniques de l'acétylcholine. It is filed as binding, rat. The following applies: compared with quinupramine; from IC50 of 3H-QNB displacement.
For the next test, the system named is sécrétion gastrique. The test is described as follows: Pentagastrin-stimulated gastric hypersecretion in dogs with a Heidenhain pouch. It is filed as in vivo, chien. The settings on record: Canis lupus familiaris, po, voie orale, dog, pentagastrin infusion, dose reducing hourly acid output by 50 %, doses expressed as base, read-out: DE50 (the source's name). How it is done:
L'activité inhibitrice de la sécrétion gastrique du composé de l'exemple 1 a été comparée à celle du racémique correspondant à l'aide du test d'hypersécrétion gastrique stimulée par la pentagastrine chez le chien porteur d'une poche de Heidenhein.
Trois chiens "mongrels", porteurs d'une poche de Heidenhein, à jeun depuis 18 heures, reçoivent pendant 4 heures, par perfusion veineuse, […]/kg/heure de pentagastrine sous un volume de 30 ml/heure. La sécrétion de la poche est recueillie dans un flacon qui est changé toutes les 15 minutes. Une heure et demie après le début de la perfusion, le produit à étudier est administré par voie orale dans une gélule n° 000. La dose efficace 50 % (DE 50) eet la dose de produit qui diminue de 50 % le débit acide horaire enregistré pendant la 3ème ou 4ème heure de l'expérimentation par rapport au débit acide horaire enregistré lors de la deuxième heure do la perfusion.
Les résultats obtenus sont rassemblés dans le tableau ci-après, où les dosas sont exprimées en produit sous forme de base : […]

Regarding `c1ccc2c(c1)CCc1ccccc1N2[C@@H]1CN2CCC1CC2` [Exemple 2, [aza-1 bicyclo(2,2,2)octyl-3 (S)]-5 dihydro-10,11 5H-dibenz (b,f) azépine], the “activity relative to the corresponding racemate” value in test [1] was “deux fois plus actif”. In the case of `CN(C)S(=O)(=O)c1ccc2c(c1)N(C1CN3CCC1CC3)c1ccccc1S2` (racemic) [racémique correspondant, reference compound], the ED50 in the test on sécrétion gastrique was 1 mg/kg.

Regarding `CN(C)S(=O)(=O)c1ccc2c(c1)N([C@@H]1CN3CCC1CC3)c1ccccc1S2` [Exemple 1, N,N-diméthyl [aza-1 bicyclo(2,2,2)octyl-3(S)] - 10 10 H-phénothiazinesulfonamide-2], in the test with sécrétion gastrique, the ED50 came to 0.7 mg/kg.
